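Assay format: 96-well plates, 48-hour exposure. Abbreviation: GI50, concentration required for 50% inhibition of growth. TGI denotes the concentration required for complete inhibition of growth.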
Legend:
Test in all cases: DTP human tumour cell line panel, 48 h
A498 renal = system: A498 renal
HCT-15 colon = system: HCT-15 colon
TK-10 renal = system: TK-10 renal
COLO 205 colon = system: COLO 205 colon
BT-549 breast = system: BT-549 breast
HCT-116 colon = system: HCT-116 colon
NCI-H522 lung = system: NCI-H522 lung
SK-OV-3 ovarian = system: SK-OV-3 ovarian
IGROV1 ovarian = system: IGROV1 ovarian
OVCAR-4 ovarian = system: OVCAR-4 ovarian
HS 578T breast = system: HS 578T breast
MDA-MB-231 breast = system: MDA-MB-231 breast
EKVX NSCLC = system: EKVX NSCLC
SNB-19 CNS = system: SNB-19 CNS
PC-3 prostate = system: PC-3 prostate
U251 CNS = system: U251 CNS
SNB-75 CNS = system: SNB-75 CNS
DU-145 prostate = system: DU-145 prostate
SK-MEL-28 melanoma = system: SK-MEL-28 melanoma
RXF 393 renal = system: RXF 393 renal
ACHN renal = system: ACHN renal
HOP-92 NSCLC = system: HOP-92 NSCLC
SF-268 CNS = system: SF-268 CNS
NCI-H23 lung = system: NCI-H23 lung
UACC-62 melanoma = system: UACC-62 melanoma
M14 melanoma = system: M14 melanoma
SR leukemia = system: SR leukemia
MOLT-4 leukemia = system: MOLT-4 leukemia
KM12 colon = system: KM12 colon
SK-MEL-5 melanoma = system: SK-MEL-5 melanoma
SF-295 CNS = system: SF-295 CNS
NCI-H226 lung = system: NCI-H226 lung
CAKI-1 renal = system: CAKI-1 renal
MDA-MB-435 = system: MDA-MB-435
786-0 renal = system: 786-0 renal
HL-60(TB) leukemia = system: HL-60(TB) leukemia
MCF7 breast = system: MCF7 breast
HOP-62 NSCLC = system: HOP-62 NSCLC
SF-539 CNS = system: SF-539 CNS
SK-MEL-2 melanoma = system: SK-MEL-2 melanoma
HT29 colon = system: HT29 colon
HCC-2998 colon = system: HCC-2998 colon
UACC-257 melanoma = system: UACC-257 melanoma
MALME-3M melanoma = system: MALME-3M melanoma
T-47D breast = system: T-47D breast
NCI-H460 lung = system: NCI-H460 lung
UO-31 renal = system: UO-31 renal
CCRF-CEM leukemia = system: CCRF-CEM leukemia
NCI/ADR-RES ovarian = system: NCI/ADR-RES ovarian
SN12C renal = system: SN12C renal
LOX IMVI melanoma = system: LOX IMVI melanoma
RPMI-8226 leukemia = system: RPMI-8226 leukemia
K-562 leukemia = system: K-562 leukemia
OVCAR-5 ovarian = system: OVCAR-5 ovarian
A549 NSCLC = system: A549 NSCLC
OVCAR-8 ovarian = system: OVCAR-8 ovarian
SW-620 colon = system: SW-620 colon

## Nn1c(=O)n(-c2cccc(C(F)(F)F)c2)c(=O)c2cc(-c3ccc(F)cc3F)ccc21
A498 renal
  GI50: 327 nM
  TGI: 1300 nM
HCT-15 colon
  GI50: 649 nM
  TGI: 2690 nM
TK-10 renal
  GI50: 4070 nM
  TGI: 8740 nM
COLO 205 colon
  GI50: 1940 nM
  TGI: 3670 nM
BT-549 breast
  GI50: 667 nM
  TGI: 2140 nM
HCT-116 colon
  GI50: 841 nM
  TGI: 2290 nM
NCI-H522 lung
  GI50: 390 nM
  TGI: 2550 nM
SK-OV-3 ovarian
  GI50: 1290 nM
  TGI: 3390 nM
IGROV1 ovarian
  GI50: 1830 nM
  TGI: 27700 nM
OVCAR-4 ovarian
  GI50: 2550 nM
  TGI: > 100000 nM
HS 578T breast
  GI50: 1190 nM
  TGI: 5430 nM
MDA-MB-231 breast
  GI50: 1900 nM
  TGI: 6130 nM
EKVX NSCLC
  GI50: 2480 nM
  TGI: 8790 nM
SNB-19 CNS
  GI50: 1070 nM
  TGI: 13300 nM
PC-3 prostate
  GI50: 653 nM
  TGI: 4140 nM
U251 CNS
  GI50: 1510 nM
  TGI: 9920 nM
SNB-75 CNS
  GI50: 1670 nM
  TGI: 6370 nM
DU-145 prostate
  GI50: 3060 nM
  TGI: 17700 nM
SK-MEL-28 melanoma
  GI50: 1450 nM
  TGI: 6650 nM
RXF 393 renal
  GI50: 1120 nM
  TGI: 3110 nM
ACHN renal
  GI50: 2400 nM
  TGI: 10300 nM
HOP-92 NSCLC
  GI50: 137 nM
  TGI: 523 nM
SF-268 CNS
  GI50: 1910 nM
  TGI: 10900 nM
NCI-H23 lung
  GI50: 1080 nM
  TGI: 4200 nM
UACC-62 melanoma
  GI50: 296 nM
  TGI: 1140 nM
M14 melanoma
  GI50: 1540 nM
  TGI: 4330 nM
SR leukemia
  GI50: 1210 nM
  TGI: 5940 nM
MOLT-4 leukemia
  GI50: 2050 nM
  TGI: 6120 nM
KM12 colon
  GI50: 2440 nM
  TGI: 6600 nM
SK-MEL-5 melanoma
  GI50: 338 nM
  TGI: 1240 nM
SF-295 CNS
  GI50: 1760 nM
  TGI: 3760 nM
NCI-H226 lung
  GI50: 1530 nM
  TGI: 4840 nM
CAKI-1 renal
  GI50: 1500 nM
  TGI: 5140 nM
MDA-MB-435
  GI50: 1660 nM
  TGI: 6450 nM
786-0 renal
  GI50: 2140 nM
  TGI: 5260 nM
HL-60(TB) leukemia
  GI50: 1750 nM
  TGI: 8760 nM
MCF7 breast
  GI50: 1610 nM
  TGI: 7080 nM
HOP-62 NSCLC
  GI50: 1900 nM
  TGI: 4600 nM
SF-539 CNS
  GI50: 1730 nM
  TGI: 8230 nM
SK-MEL-2 melanoma
  GI50: 449 nM
  TGI: 2070 nM
HT29 colon
  GI50: 3490 nM
  TGI: 13900 nM
HCC-2998 colon
  GI50: 2770 nM
  TGI: 9960 nM
UACC-257 melanoma
  GI50: 1050 nM
  TGI: 3970 nM
MALME-3M melanoma
  GI50: 1540 nM
  TGI: 5300 nM
T-47D breast
  GI50: 1690 nM
  TGI: 7020 nM
NCI-H460 lung
  GI50: 776 nM
  TGI: 8030 nM
UO-31 renal
  GI50: 2270 nM
  TGI: 8800 nM
CCRF-CEM leukemia
  GI50: 1140 nM
  TGI: 6850 nM
NCI/ADR-RES ovarian
  GI50: 1840 nM
  TGI: 9170 nM
SN12C renal
  GI50: 991 nM
  TGI: 5360 nM
LOX IMVI melanoma
  GI50: 1490 nM
  TGI: 3130 nM
RPMI-8226 leukemia
  GI50: 319 nM
  TGI: 1520 nM
K-562 leukemia
  GI50: 949 nM
  TGI: 14800 nM
OVCAR-5 ovarian
  GI50: 3510 nM
  TGI: 19000 nM
A549 NSCLC
  GI50: 2710 nM
  TGI: 12500 nM
OVCAR-8 ovarian
  GI50: 1220 nM
  TGI: 6520 nM
SW-620 colon
  GI50: 1620 nM
  TGI: 4410 nM

Source: PubChem BioAssay (NCI)
